Experimental data published in the supplement of paper PMC12819154, “High-throughput peptide-centric local stability assay extends protein–ligand identification to membrane proteins, tissues and bacteria” (Nature Structural & Molecular Biology, 2025).

Key:
Assay in all cases: pEC50 of peptide local stability change
UniProt P00582 = conditions: peptide sequence: LYLPDIK; direction: stabilized; replicate design: treated separately
Experimental: (§1)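 Dose-response HT-PELSA: desalted E. coli lysate treated separately per replicate with ATP (10 uM to 10 mM, 7 doses) for 30 min at 25 C, then a 4 min trypsin pulse at 22 C. Peptide ratio vs control was fitted with a 4-parameter log-logistic model (R2 > 0.9 in at least 3 replicates, CV of pEC50 <= 0.25); value is the mean pEC50 across replicates for stabilized or destabilized peptides.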

UniProt P03007 = conditions: peptide sequence: VTDSLAVAR; direction: stabilized; replicate design: treated separately
Chain of UniProt P03007 (P03007 whole entry): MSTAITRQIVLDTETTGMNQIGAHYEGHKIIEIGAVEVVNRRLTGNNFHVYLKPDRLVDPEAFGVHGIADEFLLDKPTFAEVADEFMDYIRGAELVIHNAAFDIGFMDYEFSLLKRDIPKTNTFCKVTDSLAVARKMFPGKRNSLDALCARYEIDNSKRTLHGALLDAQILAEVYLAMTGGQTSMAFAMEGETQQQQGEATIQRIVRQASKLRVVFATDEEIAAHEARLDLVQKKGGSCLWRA
Experimental: as §1

UniProt P06612 = conditions: peptide sequence: DLPTSGSAAKK; direction: stabilized; replicate design: treated separately
Experimental: as §1

UniProt P06999 = conditions: peptide sequence: ELTQPDDVR; direction: stabilized; replicate design: treated separately
Experimental: as §1

UniProt P07109 = conditions: peptide sequence: HVSTHVIFLHQGK; direction: stabilized; replicate design: treated separately
Chain of UniProt P07109 (P07109 whole entry): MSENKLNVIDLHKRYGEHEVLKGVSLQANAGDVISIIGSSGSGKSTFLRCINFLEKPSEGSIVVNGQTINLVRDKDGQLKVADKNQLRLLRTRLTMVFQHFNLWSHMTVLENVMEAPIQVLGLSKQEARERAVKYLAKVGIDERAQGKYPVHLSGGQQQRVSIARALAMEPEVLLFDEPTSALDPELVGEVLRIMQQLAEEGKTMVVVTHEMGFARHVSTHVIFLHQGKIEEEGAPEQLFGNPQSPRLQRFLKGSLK
Experimental: as §1

UniProt P07395 = conditions: peptide sequence: EISRFPANRR; direction: stabilized; replicate design: treated separately
Chain of UniProt P07395 (P07395 whole entry): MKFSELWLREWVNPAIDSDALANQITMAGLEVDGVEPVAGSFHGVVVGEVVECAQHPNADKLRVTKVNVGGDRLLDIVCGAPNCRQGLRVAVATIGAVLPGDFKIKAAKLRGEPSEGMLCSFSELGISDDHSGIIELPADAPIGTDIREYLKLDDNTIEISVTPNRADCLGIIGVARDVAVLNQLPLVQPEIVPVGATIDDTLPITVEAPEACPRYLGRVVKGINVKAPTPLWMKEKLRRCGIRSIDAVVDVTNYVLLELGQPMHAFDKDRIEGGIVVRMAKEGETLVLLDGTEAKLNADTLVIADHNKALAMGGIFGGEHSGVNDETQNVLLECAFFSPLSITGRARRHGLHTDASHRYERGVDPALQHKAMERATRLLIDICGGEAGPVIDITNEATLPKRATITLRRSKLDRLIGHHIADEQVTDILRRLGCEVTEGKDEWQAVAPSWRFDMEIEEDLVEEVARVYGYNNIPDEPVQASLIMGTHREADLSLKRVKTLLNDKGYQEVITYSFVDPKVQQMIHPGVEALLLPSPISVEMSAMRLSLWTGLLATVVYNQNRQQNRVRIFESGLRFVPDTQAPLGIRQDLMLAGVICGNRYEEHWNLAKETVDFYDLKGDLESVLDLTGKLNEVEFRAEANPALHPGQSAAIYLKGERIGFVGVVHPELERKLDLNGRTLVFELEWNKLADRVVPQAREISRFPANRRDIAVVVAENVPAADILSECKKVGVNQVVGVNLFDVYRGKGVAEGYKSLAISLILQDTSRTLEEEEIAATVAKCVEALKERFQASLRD
Experimental: as §1

UniProt P08192 = conditions: peptide sequence: ASGLEVSENAIR; direction: stabilized; replicate design: treated separately
Experimental: as §1

UniProt P08200 = conditions: peptide sequence: VAIKGPLTTPVGGGIR; direction: stabilized; replicate design: treated separately
Experimental: as §1

UniProt P0AAB8 = conditions: peptide sequence: EQCDLLVCGHHHSFINR; direction: stabilized; replicate design: treated separately
Chain of UniProt P0AAB8 (P0AAB8 whole entry): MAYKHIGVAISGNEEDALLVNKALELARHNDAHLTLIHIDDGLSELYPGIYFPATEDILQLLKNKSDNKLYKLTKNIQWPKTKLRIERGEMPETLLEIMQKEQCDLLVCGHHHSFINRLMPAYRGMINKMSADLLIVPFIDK
Experimental: as §1

UniProt P0ACL0 = conditions: peptide sequence: HVMLVVDHSK; direction: stabilized; replicate design: treated separately
Experimental: as §1

UniProt P15640 = conditions: peptide sequence: VIEFNCR; direction: stabilized; replicate design: treated separately
Experimental: as §1

UniProt P23331 = conditions: peptide sequence: AEHEQQAIHCVLVDECQFLTR; direction: stabilized; replicate design: treated separately
Experimental: as §1

UniProt P24193 = conditions: peptide sequence: DAALIGEVVERK; direction: stabilized; replicate design: treated separately
Experimental: as §1

UniProt P25536 = conditions: peptide sequence: IVTGIEEQR; direction: stabilized; replicate design: treated separately
Chain of UniProt P25536 (P25536 whole entry): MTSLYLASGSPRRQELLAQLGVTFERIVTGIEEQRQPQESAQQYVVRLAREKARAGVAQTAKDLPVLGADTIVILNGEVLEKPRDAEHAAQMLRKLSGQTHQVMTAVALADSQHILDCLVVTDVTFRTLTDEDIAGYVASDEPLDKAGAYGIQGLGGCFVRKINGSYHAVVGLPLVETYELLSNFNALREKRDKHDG
Experimental: as §1

UniProt P25539 = conditions: peptide sequence: HVGPDVCLHLVGA; direction: stabilized; replicate design: treated separately
Experimental: as §1

UniProt P30176 = conditions: peptide sequence: AKFEQHAELR; direction: stabilized; replicate design: treated separately
Experimental: as §1

UniProt P31060 = conditions: peptide sequence: QSQFSHITR; direction: stabilized; replicate design: treated separately
Experimental: as §1

UniProt P36879 = conditions: peptide sequence: KTYPGGVQALR; direction: stabilized; replicate design: treated separately
Chain of UniProt P36879 (P36879 whole entry): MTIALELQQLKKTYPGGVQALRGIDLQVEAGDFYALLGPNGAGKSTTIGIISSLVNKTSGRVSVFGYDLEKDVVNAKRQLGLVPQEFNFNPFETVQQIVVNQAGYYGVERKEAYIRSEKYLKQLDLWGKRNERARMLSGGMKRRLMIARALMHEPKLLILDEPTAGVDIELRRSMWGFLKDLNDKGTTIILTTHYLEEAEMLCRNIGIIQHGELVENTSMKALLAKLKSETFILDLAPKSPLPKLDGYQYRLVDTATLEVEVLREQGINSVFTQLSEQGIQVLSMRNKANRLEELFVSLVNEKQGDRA
Experimental: as §1

UniProt P37624 = conditions: peptide sequence: VLASGTPQELVEKR; direction: stabilized; replicate design: treated separately
Experimental: as §1

UniProt P39177 = conditions: peptide sequence: NPSISTHLLGSNASSVIR; direction: stabilized; replicate design: treated separately
Experimental: as §1

UniProt P39342 = conditions: peptide sequence: AMVIAPCSR; direction: stabilized; replicate design: treated separately
Chain of UniProt P39342 (P39342 whole entry): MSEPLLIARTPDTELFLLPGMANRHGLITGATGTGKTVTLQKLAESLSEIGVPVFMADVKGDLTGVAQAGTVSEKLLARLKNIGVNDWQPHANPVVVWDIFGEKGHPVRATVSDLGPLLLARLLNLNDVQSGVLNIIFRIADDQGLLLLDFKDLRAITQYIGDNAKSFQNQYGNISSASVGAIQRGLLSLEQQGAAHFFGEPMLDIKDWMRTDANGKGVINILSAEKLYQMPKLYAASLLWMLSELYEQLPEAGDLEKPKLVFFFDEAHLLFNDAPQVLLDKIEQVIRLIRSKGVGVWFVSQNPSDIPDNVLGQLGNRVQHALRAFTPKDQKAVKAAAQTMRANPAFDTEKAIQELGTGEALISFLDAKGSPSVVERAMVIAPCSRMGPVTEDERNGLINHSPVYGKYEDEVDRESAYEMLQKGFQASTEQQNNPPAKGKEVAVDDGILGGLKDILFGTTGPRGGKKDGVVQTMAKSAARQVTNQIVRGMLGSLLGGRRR
Experimental: as §1

UniProt P39383 = conditions: peptide sequence: QLVDFADK; direction: stabilized; replicate design: treated separately
Chain of UniProt P39383 (P39383 whole entry): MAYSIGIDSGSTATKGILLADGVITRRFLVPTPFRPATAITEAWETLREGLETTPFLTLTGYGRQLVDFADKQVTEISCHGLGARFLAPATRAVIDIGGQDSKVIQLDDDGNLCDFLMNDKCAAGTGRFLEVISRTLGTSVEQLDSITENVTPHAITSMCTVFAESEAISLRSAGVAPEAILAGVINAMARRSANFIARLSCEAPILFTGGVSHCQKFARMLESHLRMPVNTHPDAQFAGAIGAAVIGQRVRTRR
Experimental: as §1

UniProt P40719 = conditions: peptide sequence: RFTSDAAHELR; direction: stabilized; replicate design: treated separately
Experimental: as §1

UniProt P43329 = conditions: peptide sequence: HTEILPLYAR; direction: stabilized; replicate design: treated separately
Experimental: as §1

UniProt P43672 = conditions: peptide sequence: LMLGQLQADSGR; direction: stabilized; replicate design: treated separately
Chain of UniProt P43672 (P43672 whole entry): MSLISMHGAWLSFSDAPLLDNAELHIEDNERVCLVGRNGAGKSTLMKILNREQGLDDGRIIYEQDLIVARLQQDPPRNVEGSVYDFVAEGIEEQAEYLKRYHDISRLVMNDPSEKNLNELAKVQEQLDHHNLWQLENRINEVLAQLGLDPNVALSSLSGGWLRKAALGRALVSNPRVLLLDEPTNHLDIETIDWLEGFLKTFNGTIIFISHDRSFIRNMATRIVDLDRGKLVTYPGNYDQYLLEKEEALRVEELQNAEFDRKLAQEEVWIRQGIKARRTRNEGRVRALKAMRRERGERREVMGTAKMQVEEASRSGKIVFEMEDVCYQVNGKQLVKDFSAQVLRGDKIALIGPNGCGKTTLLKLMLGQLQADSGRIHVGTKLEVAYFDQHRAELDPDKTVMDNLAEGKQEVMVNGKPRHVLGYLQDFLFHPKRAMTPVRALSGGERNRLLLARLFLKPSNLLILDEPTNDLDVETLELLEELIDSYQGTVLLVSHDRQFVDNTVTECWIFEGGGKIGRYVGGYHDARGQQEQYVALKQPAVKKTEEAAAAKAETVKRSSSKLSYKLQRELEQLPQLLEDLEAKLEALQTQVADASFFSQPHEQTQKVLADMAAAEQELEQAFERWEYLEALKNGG
Experimental: as §1

UniProt P45395 = conditions: peptide sequence: VNDIMHTGDEIPHVKK; direction: stabilized; replicate design: treated separately
Chain of UniProt P45395 (P45395 whole entry): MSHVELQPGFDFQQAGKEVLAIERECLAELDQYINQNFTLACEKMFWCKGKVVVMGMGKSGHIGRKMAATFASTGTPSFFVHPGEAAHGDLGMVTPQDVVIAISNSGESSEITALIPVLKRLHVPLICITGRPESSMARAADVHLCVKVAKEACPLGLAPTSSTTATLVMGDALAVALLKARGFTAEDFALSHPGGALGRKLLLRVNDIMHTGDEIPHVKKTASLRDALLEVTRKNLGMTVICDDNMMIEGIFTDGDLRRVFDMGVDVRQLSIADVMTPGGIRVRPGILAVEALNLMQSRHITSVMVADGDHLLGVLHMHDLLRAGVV
Experimental: as §1

UniProt P75736 = conditions: peptide sequence: QQAAAIMR; direction: stabilized; replicate design: treated separately
Experimental: as §1

UniProt P75821 = conditions: peptide sequence: SAKEPPLTHYGVSK; direction: stabilized; replicate design: treated separately
Chain of UniProt P75821 (P75821 whole entry): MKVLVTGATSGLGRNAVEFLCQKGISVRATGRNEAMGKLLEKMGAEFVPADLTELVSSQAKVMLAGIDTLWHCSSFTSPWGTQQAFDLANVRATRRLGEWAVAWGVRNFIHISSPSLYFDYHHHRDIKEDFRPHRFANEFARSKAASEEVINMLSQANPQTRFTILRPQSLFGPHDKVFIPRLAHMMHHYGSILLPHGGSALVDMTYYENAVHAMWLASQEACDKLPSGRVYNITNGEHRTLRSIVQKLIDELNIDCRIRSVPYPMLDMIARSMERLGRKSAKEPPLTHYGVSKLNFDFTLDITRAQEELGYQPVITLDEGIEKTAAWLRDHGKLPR
Experimental: as §1

UniProt P76192 = conditions: peptide sequence: VLPAEEYAEIR; direction: stabilized; replicate design: treated separately
Experimental: as §1

UniProt P76419 = conditions: peptide sequence: GGDCAPTREELLLAHK; direction: stabilized; replicate design: treated separately
Chain of UniProt P76419 (P76419 whole entry): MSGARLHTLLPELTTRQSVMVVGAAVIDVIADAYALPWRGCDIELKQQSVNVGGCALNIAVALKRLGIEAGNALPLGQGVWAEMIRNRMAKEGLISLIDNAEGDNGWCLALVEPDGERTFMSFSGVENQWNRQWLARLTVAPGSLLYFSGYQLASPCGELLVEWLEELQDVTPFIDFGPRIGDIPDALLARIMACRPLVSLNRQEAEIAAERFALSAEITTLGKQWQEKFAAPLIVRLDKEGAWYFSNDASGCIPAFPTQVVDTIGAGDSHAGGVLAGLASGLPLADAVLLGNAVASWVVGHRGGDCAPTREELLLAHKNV
Experimental: as §1

UniProt Q06065 = conditions: peptide sequence: QPVCNAGEVK; direction: stabilized; replicate design: treated separately
Chain of UniProt Q06065 (Q06065 whole entry): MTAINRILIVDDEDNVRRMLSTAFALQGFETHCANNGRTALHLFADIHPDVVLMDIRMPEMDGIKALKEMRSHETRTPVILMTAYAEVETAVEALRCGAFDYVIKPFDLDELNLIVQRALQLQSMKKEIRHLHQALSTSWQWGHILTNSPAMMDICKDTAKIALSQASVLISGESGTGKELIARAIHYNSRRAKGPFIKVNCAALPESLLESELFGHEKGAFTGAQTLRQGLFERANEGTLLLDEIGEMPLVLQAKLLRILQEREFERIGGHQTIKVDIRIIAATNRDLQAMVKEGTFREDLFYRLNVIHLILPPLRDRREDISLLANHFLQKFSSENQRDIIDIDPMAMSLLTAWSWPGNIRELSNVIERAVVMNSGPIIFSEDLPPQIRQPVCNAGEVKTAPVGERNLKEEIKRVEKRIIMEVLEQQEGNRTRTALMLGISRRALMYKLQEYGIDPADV
Experimental: as §1

Nc1ncnc2c1ncn2[C@@H]1O[C@H](COP(=O)(O)OP(=O)(O)OP(=O)(O)O)[C@@H](O)[C@H]1O [adenosine 5'-triphosphate]
Conditions | pEC50 of peptide local stability change
UniProt P0AAB8 | 3.82
UniProt P0ACL0 | 4.44
UniProt P00582 | 3.5
UniProt P03007 | 2.27
UniProt P06612 | 2.16
UniProt P06999 | 3.2
UniProt P07109 | 3.88
UniProt P07395 | 3.77
UniProt P08192 | 2.7
UniProt P08200 | 2.33
UniProt P15640 | 3.7
UniProt P23331 | 3.2
UniProt P24193 | 4.4
UniProt P25536 | 3.52
UniProt P25539 | 2.74
UniProt P30176 | 2.71
UniProt P31060 | 2.89
UniProt P36879 | 3.73
UniProt P37624 | 3.2
UniProt P39177 | 3.26
UniProt P39342 | 4.23
UniProt P39383 | 3.31
UniProt P40719 | 3.59
UniProt P43329 | 3.11
UniProt P43672 | 3.81
UniProt P45395 | 3.32
UniProt P75736 | 2.02
UniProt P75821 | 2.62
UniProt P76192 | 3.75
UniProt P76419 | 3.74
UniProt Q06065 | 3.47
